Reference: patent publication US11866412B1, “Acridin-9-one compounds as antibacterial agents” (KING FAISAL UNIVERSITY, priority 2023, dated 2024)
Converted amounts (≈) assume the structure as drawn. Read-outs that look alike come from different tables or passages of the source.

Tests used:
[1] = tested on: Klebsiella pneumonia MTCC 618; assay: in vitro antibacterial activity, dilution MIC (CLSI M07-A10); format: cell-based; details: Klebsiella pneumoniae, MTCC618
[2] = tested on: Bacillus subtilis MTCC 441; assay: as above; format: cell-based; details: MTCC441
[3] = tested on: Enterococcus faecium ATCC 51559 (VRE resistant); assay: as above; format: cell-based
[4] = tested on: Escherichia coli MTCC 443; assay: as above; format: cell-based; details: MTCC443
[5] = tested on: H37Rv type of M. tuberculosis strains; assay: antitubercular alamar blue microplate MIC assay; format: cell-based; details: mycobacterium tuberculosis H37Rv strain, read-out: anti-mycobacterial activity (MIC)
[6] = tested on: Staphylococcus aureus ATCC BAA-1556 (MERSA resistant); assay: in vitro antibacterial activity, dilution MIC (CLSI M07-A10); format: cell-based; details: ATCCBAA1556
[7] = tested on: Pseudomonas aeruginosa MTCC 741; assay: as above; format: cell-based; details: MTCC741
[8] = tested on: Enterococcus faecium ATCC 35667; assay: as above; format: cell-based; details: ATCC35667
DNA gyrase from E. coli = target: T1, DNA gyrase from E. coli (Escherichia coli, UniProt P0AES4+P0AES6); assay: Inhibitory activities on E. coli DNA Gyrase (Inspiralis assay); format: biochemical
T1 construct: purchased Inspiralis
Procedure: First, the plates were rehydrated with buffer (20 mM Tris-HCl with pH 7.6, 0.01% w/v BSA, 0.05% v/v Tween 20, 137 mM NaCl) and the biotinylated oligonucleotide was then immobilized. After washing off the unbound oligonucleotide, the enzyme test was performed. […] Reaction solutions were incubated at 37° C. for 30 min. After that, the TF buffer (50 mM NaOAc with pH 5.0, 50 mM NaCl and 50 mM MgCl2) was added to terminate the enzymatic reaction. After additional incubation for 30 min at rt, during which biotinoligonucleotide-plasmid triplex was formed, the unbound plasmid was washed off using TF buffer and SybrGOLD in T10 buffer (10 mM Tris HCl with pH 8.0 and 1 mM EDTA) was added. The fluorescence was measured with a microplate reader (BioTek Synergy H4, excitation: 485 nm, emission: 535 nm). Initial screening was done at 100 or 10 μM concentration of inhibitors. […] GraphPad Prism software was used to calculate the IC50 values. The result is given as the average value of three independent measurements.

[9] = tested on: Staphylococcus aureus ATCC 29213; assay: in vitro antibacterial activity, dilution MIC (CLSI M07-A10); format: cell-based; details: ATCC29213
[10] = tested on: Staphylococcus epidermidis; assay: as above; format: cell-based

T1 sequence (P0AES4 whole entry, one chain of several): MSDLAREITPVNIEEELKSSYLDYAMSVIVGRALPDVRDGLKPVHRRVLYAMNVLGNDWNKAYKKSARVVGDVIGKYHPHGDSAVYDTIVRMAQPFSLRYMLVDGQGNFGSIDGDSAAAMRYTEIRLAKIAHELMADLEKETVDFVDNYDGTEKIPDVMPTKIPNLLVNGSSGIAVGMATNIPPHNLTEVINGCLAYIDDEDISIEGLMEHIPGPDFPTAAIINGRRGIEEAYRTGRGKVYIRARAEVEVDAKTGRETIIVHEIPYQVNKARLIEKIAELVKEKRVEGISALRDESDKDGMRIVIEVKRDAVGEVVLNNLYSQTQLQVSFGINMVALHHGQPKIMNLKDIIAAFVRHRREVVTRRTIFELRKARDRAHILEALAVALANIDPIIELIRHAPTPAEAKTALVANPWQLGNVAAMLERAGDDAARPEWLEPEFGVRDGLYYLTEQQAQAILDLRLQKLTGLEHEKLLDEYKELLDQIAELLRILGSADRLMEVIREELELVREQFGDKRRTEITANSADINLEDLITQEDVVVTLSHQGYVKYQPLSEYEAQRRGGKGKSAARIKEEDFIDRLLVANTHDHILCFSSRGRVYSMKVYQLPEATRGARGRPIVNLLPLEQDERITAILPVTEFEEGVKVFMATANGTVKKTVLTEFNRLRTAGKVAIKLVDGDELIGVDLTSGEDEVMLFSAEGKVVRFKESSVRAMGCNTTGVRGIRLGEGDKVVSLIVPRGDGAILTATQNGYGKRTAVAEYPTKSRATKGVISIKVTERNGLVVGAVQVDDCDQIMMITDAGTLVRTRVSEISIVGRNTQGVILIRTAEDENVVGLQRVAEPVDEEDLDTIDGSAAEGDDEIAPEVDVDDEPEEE

## CCCCCN(C)Cc1ccc(C(=O)O)cc1-c1cnc2[nH]c3c(NC)cc(F)cc3c(=O)c2c1 [Compound 8, 3-(7-fluoro-9-(methylamino)-5-oxo-5,10-dihydrobenzo[b][1,8]naphthyridin-3-yl)-4-((methyl(pentyl)amino)methyl)benzoic acid]
[1]; Klebsiella pneumonia MTCC 618, read-out: MIC
  MIC: 0.75 µg/mL (≈ 1.57 µM)
[2]
  MIC: 0.5 µg/mL (≈ 1.05 µM)
[3]
  MIC: 0.1 µg/mL (≈ 0.21 µM)
[4]
  MIC: 2 µg/mL (≈ 4.2 µM)
[5]
  MIC: 4 µg/mL (≈ 8.39 µM)
[6]
  MIC: 0.75 µg/mL (≈ 1.57 µM)
[7]
  MIC: 0.5 µg/mL (≈ 1.05 µM)
[8]
  MIC: 0.1 µg/mL (≈ 0.21 µM)
DNA gyrase from E. coli
  IC50: 11 nM
[9]
  MIC: 0.75 µg/mL (≈ 1.57 µM)
[10]
  MIC: 1 µg/mL (≈ 2.1 µM)

## CN[C@H](CC(C)C)C(=O)N[C@H]1C(=O)N[C@@H](CC(N)=O)C(=O)N[C@H]2C(=O)N[C@H]3C(=O)N[C@H](C(=O)N[C@H](C(=O)O)c4cc(O)cc(O)c4-c4cc3ccc4O)[C@H](O)c3ccc(c(Cl)c3)Oc3cc2cc(c3O[C@@H]2O[C@H](CO)[C@@H](O)[C@H](O)[C@H]2O[C@H]2C[C@](C)(N)[C@H](O)[C@H](C)O2)Oc2ccc(cc2Cl)[C@H]1O [Vancomycin, reference compound]
[1]
  MIC: > 128 µg/mL
